The values that follow come from patent US5686424A, “2-oxoethyl derivatives as immunosuppressants” (Miles Inc., priority 1995, dated 1997).

In the experiment the test system is human T-cells. Briefly: Suppression of Human T-Cell Proliferation Assay (PHA-stimulated, [3H]-thymidine incorporation). In kind it is cell-based. The note with it: TABLE 2. The gist of the method: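 Read-out is scintillation counting of [3H]-thymidine pulsed for the last 6 h of a 72 h, 37° C culture. Human T-cells, isolated from LeukoPaks by Lymphoprep and sheep-erythrocyte rosetting, were PHA-M activated (40 μg/ml stock) with compound dilutions added in duplicate wells.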
A general note: Incorporation of labelled thymidine or its analogues reports DNA synthesis.

The mark [1] stands for this setting: read-out: concentrations that suppress the T-cell proliferative response by 50%.
Where [2] appears, read: concentration inhibiting [3H]-thymidine incorporation of PHA-stimulated T-cells by 50%, 72 hours, read-out: IC50.

pIC50: −log10 of the molar value. Where two headings read alike, the source gives them in different places. Where only a bound is given, the exact number is not on record here.

On to `CC[C@H](C)[C@H](NC(=O)[C@@H]1CCCN1CC(=O)NC12CC3CC(CC(C3)C1)C2)C(=O)NCc1ccccc1` [Example 39, L-Isoleucine, N-[1-(2-Aminoadamant-1-yl-2-oxoethyl)-L-Prolyl] Benzylamide], for which the pIC50 reads like this: under setting [1], more than 5.00; under setting [2], 5.22.

Regarding `CC[C@H](C)[C@H](NC(=O)[C@@H]1CCCN1CC(=O)C1CC2CC(C1C)C2(C)C)C(=O)NCc1ccccc1` (stereo partly drawn) [Example 41, L-Isoleucine, N-[1-[2-(2,6,6-Trimethyl-Bicyclo[3.1.1]hept-3-yl)-2-Oxoethyl]-L-Prolyl] Benzylamide], the pIC50 by setting is: under setting [1], more than 5.00; under setting [2], 5.22.

Consider `O=C(NCc1ccccc1)[C@H](COCc1ccccc1)NC(=O)[C@@H]1CCCN1CC(=O)C12CC3CC(CC(C3)C1)C2` [Example 62, L-Serine-(O-Benzyl Ether), N-[1-(2-Adamantan-1-yl-2-Oxoethyl)-L-Prolyl] Benzylamide], for which the pIC50 under setting [1] is more than 5.00 and the pIC50 under setting [2] is 5.40.

Regarding `O=C(CC(NC(=O)[C@@H]1CCCN1CC(=O)C12CC3CC(CC(C3)C1)C2)c1ccccc1)NCc1ccccc1` (stereo partly drawn) [Example 63, L-β-Phenylalanine, N-[1-(2-Adamantan-1-yl-2-Oxoethyl)-L-Prolyl] Benzylamide], the pIC50 is more than 5.00 under setting [1] and 5.22 under setting [2].

As to `CC[C@H](C)[C@H](NC(=O)[C@@H]1CCCN1CC(=O)C12CC3CC(CC(C3)C1)C2)C(=O)N[C@H](C)c1ccccc1` [Example 66, L-Isoleucine, N-[1-(2-Adamantan-1-yl-2-Oxoethyl)-L-Prolyl] alpha-(R)-methylbenzylamide], the pIC50 by setting is: under setting [1], more than 5.00; under setting [2], 5.52.

Regarding `CC[C@H](C)[C@H](NC(=O)[C@@H]1CCCN1CC(=O)NC1C2CC3CC(C2)CC1C3)C(=O)NCc1ccccc1` (stereo partly drawn) [Example 90, L-Isoleucine, N-[1-(Adamantan-2-ylcarbamoylmethyl)-L-Prolyl] Benzylamide], the pIC50 is more than 5.00 under setting [1] and 5.22 under setting [2].

Take `CC[C@H](C)[C@H](NC(=O)[C@@H]1CCCN1CC(=O)O[C@H](c1ccccc1)C(C)C)C(=O)NCc1ccccc1` [Example 92, L-Isoleucine, N-[1-(2-(2-Methyl-1-(S)-Phenyl-1-Propoxy)-2-Oxoethyl)-L-Prolyl] Benzylamide]: the pIC50 reads like this: under setting [1], more than 5.00; under setting [2], 5.22.

As for `CC[C@H](C)[C@H](NC(=O)[C@@H]1CCCN1CC(=O)O[C@@H](c1ccccc1)C(C)C)C(=O)NCc1ccccc1` [Example 93, L-Isoleucine, N-[1-(2-(2-Methyl-1-(R)-Phenyl-1-Propoxy)-2-Oxoethyl)-L-Prolyl] Benzylamide], the pIC50 by setting is: under setting [1], more than 5.00; under setting [2], 5.22.
